Entries after “also recorded” stand apart in the source; their conditions may differ.
Test system: subjects with chronic obstructive pulmonary disease and a low peak inspiratory flow rate
Experiment: 28-day randomized, double-blind, double-dummy, parallel-group clinical study: once-daily revefenacin by nebulizer vs once-daily tiotropium by dry powder inhaler, lung function
Assay type: in vivo, human
Conditions: for Trough FEV1, LS Difference (SE), REV vs TIO / Trough FVC, LS Difference (SE), REV vs TIO / Trough IC, LS Difference (SE), REV vs TIO: REV 175 μg nebulizer vs TIO 18 μg dry powder inhaler; for Trough FEV1, LS Mean (SE) / Trough FVC, LS Mean (SE) / Trough IC, LS Mean (SE): change from baseline after 28 once-daily doses, TIO 18 μg dry powder inhaler, REV 175 μg nebulizer
Protocol: A 28-day, randomized, double-blind, double-dummy, parallel-group study was conducted to compare once-daily revefenacin (175 μg of revefenacin in 3 mL of an isotonic, sterile aqueous solution containing sodium chloride, citric acid, sodium citrate, and water for injection at pH 5.0) delivered using a nebulizer (Trek S jet nebulizer (PARI, Midlothian, Va., USA) with once-daily tiotropium (18 μg/day) delivered using a dry powder inhaler (Spiriva HandiHaler, Boebringer Ingelheim Pharmaceuticals, Inc., Ridgefield, Conn., USA) on lung function in subjects with chronic obstructive pulmonary disease and a low peak inspiratory flow rate. Subjects with moderate to very severe COPD were allowed to use concurrent respiratory therapy with the exception of other inhaled anticholinergics. The primary endpoint of the study was the change from baseline in trough forced expiratory volume in one second (FEV1) after the 28th dose. Secondary endpoints included the change from baseline in peak FEV1, trough forced vital capacity (FVC), peak FVC and trough inspiratory capacity (IC) as well as the safety and tolerability of revefenacin 175 μg. Inclusion criteria were: age≥40 years; a smoking history≥10 pack years; a diagnosis of COPD (post-bronchodilator FEV1≤80% predicted and FEV/FVC≤70%); peak inspiratory flow rate (PIFR)<60 L/min as measured by IN-CHECK® DIAL device with resistance set to DISKUS® at screening.
In this study, revefenacin (REV) (administered using a nebulizer) or tiotropium (TIC)) (administered using a dry powder inhaler) was dosed once-daily for 28 days, Peak inspiratory flow rates (best of three) were determined at screening, randomization and end of study using the IN-CHECK® DIAL device with the resistance set to a resistance equal or similar to the resistance associated with the DISKUS® device. FEV1, FVC and IC were measured at baseline and/or peak on day 1 and on day 29. Safety was assessed via the collection of adverse events.

[1] = % predicted FEV1 <50% subpopulation, PIFR <60 L/min
[2] = ITT population, all subjects PIFR <60 L/min
[3] = ITT population, all subjects low PIFR, listed as revefenacin
[4] = subjects with low PIFR (<60 L/min) and percent predicted FEV1 <50%, listed as revefenacin

Row | SMILES | Trough FEV1, LS Difference (SE), REV vs TIO [1] | Trough FVC, LS Difference (SE), REV vs TIO [1] | Trough IC, LS Difference (SE), REV vs TIO [1] | Trough FEV1, LS Mean (SE) [1] | Trough FVC, LS Mean (SE) [1] | Trough IC, LS Mean (SE) [1] | Trough IC, revefenacin by nebulizer compared to tiotropium by dry powder inhaler (in words) (ITT population or subpopulation with low PIFR and percent predicted FEV1 <50%, listed as revefenacin) | Trough FEV1, LS Difference (SE), REV vs TIO (ITT population, PIFR <60 L/min) | Trough FVC, LS Difference (SE), REV vs TIO (ITT population, PIFR <60 L/min) | Trough IC, LS Difference (SE), REV vs TIO (ITT population, PIFR <60 L/min) | Trough FEV1, LS Mean (SE) [2] | Trough FVC, LS Mean (SE) [2] | Trough IC, LS Mean (SE) [2] | Trough FEV1, revefenacin by nebulizer compared to tiotropium by dry powder inhaler (in words) [3] | Trough FVC, revefenacin by nebulizer compared to tiotropium by dry powder inhaler (in words) [3] | Trough FEV1, revefenacin by nebulizer compared to tiotropium by dry powder inhaler (in words) [4] | Trough FVC, revefenacin by nebulizer compared to tiotropium by dry powder inhaler (in words) [4]
1 | CN(CCN1CCC(OC(=O)Nc2ccccc2-c2ccccc2)CC1)C(=O)c1ccc(CN2CCC(C(N)=O)CC2)cc1 [REV, 1-(2-{4-[(4-carbamoylpiperidin-1-yl)methyl]-N-methylbenzamido}ethyl) piperidin-4-yl N-([1,1′-biphenyl]-2-yl)carbamate] | 47.3 (21.76) | 99.9 (48.75) | 13.7 (45.43) | 74.8 (20.85) | 146.5 (46.69) | 89.7 (42.85) | No differences in trough IC were noted; also recorded: statistically significant difference in trough IC was not observed | 15.7 (22.35) | 69.6 (42.90) | −12.7 (47.38) | 63.0 (20.17) | 125.4 (38.75) | 71.4 (42.33) | did not meet statistical significance nor clinical relevance; also recorded: statistically significant difference in trough FEV1 was not observed | did not meet statistical significance nor clinical relevance; also recorded: statistically significant difference in trough FVC was not observed | statistically significant and clinically relevant greater improvements; also recorded: statistically significant difference in trough FEV1 was observed | statistically significant and clinically relevant greater improvements; also recorded: statistically significant difference in trough FVC was observed
2 | C[N+]1(C)[C@@H]2C[C@@H](OC(=O)C(O)(c3cccs3)c3cccs3)C[C@H]1[C@@H]1O[C@@H]12 [TIO, tiotropium, reference compound] | – | – | – | 27.5 (19.53) | 46.7 (43.56) | 76.0 (40.40) | – | – | – | – | 47.3 (19.06) | 55.8 (36.62) | 84.1 (40.02) | – | – | – | –

From US20230255952A1, “METHODS FOR TREATING CHRONIC OBSTRUCTIVE PULMONARY DISEASE” (THERAVANCE BIOPHARMA R&D IP, LLC, priority 2018, published 2023)
